Test results taken from US6335339B1, “Triazine antiviral compounds” (Scriptgen Pharmaceuticals, Inc., priority 1998, dated 2002).

Assay: neutral red dye uptake cytotoxicity
Format: cell-based
Settings: human, 2.2.15 cells (confluent cultures), 9 days treatment, read-out: 50% Cell Death CC50
Outline: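 Confluent 2.2.15 cultures, same conditions as antiviral assay, treated daily for 9 days with 4 concentrations (3.3-fold dilutions), triplicate wells. 24 hours after the final dose, cells stained 30 minutes with 0.01% neutral red, dye extracted and A510 read; values as % of untreated cultures, CC50 as 50% cell death.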

For `CC(C)(C)Nc1nc(NCc2ccccc2)nc(N/N=C/c2ccccc2F)n1` [Compound 93, 2-fluorobenzaldehyde N-[4-(benzylamino)-6-(tert-butylamino)-1,3,5-triazin-2-yl]hydrazone], the CC50 at 9 days was 54 µM.
